The source of these data is doi:10.1101/2024.04.10.588849v1 (biorxiv, 2024).

Structures are written as SMILES.

The test deals with T1, recombinant human MPST (3-mercaptopyruvate sulfurtransferase) (Homo sapiens, UniProt P25325).
T1 sequence (P25325 1-317 isoform P25325-2): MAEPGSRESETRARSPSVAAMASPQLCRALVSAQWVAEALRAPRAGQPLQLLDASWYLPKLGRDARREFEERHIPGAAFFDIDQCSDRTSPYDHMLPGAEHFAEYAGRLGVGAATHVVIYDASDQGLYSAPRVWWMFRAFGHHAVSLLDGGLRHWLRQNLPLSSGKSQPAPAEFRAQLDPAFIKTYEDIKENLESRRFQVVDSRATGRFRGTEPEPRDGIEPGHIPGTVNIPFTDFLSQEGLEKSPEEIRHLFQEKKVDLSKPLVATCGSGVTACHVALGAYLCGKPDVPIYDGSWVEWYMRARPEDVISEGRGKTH
In words: isothermal titration calorimetry. The test is classed as binding. Background: ITC needs no label: the signal is the heat of the interaction.

For orientation: Kd means a measure of binding affinity in units of concentration. On to `C[N+](C)(C)[C@@H](Cc1c[nH]c(=S)[nH]1)C(=O)[O-]` [ergothioneine], for which the equilibrium dissociation constant (Kd) was 3.2 µM.
